According to the NIST ThermoML archive (doi:10.1016/j.jct.2015.08.031):

Test: molar heat capacity at constant pressure
Conditions: 101.33 kPa, Crystal, relaxation calorimetry

[Al+3].[Al+3].[O-2].[O-2].[O-2] [aluminum oxide (Al2O3)]
Conditions	molar heat capacity at constant pressure [J/K/mol]
1.93 K	7.666e-05
2.15 K	9.655e-05
2.39 K	0.0001341
2.65 K	0.0001785
2.95 K	0.0002464
3.28 K	0.0003342
3.64 K	0.0004613
4.04 K	0.0006149
4.49 K	0.0008379
4.98 K	0.001136
5.523 K	0.001541
6.13 K	0.00216
6.8 K	0.002926
7.54 K	0.004006
8.36 K	0.005388
9.27 K	0.007325
10.28 K	0.009979
11.37 K	0.0134
12.61 K	0.01843
13.99 K	0.02532
15.52 K	0.03431
17.22 K	0.04685
19.12 K	0.06451
21.23 K	0.08864
23.58 K	0.1229
26.17 K	0.1719
29.08 K	0.2396
32.22 K	0.3344
35.73 K	0.4743
39.62 K	0.6761
43.94 K	0.9644
48.73 K	1.379
54.06 K	1.968
59.98 K	2.789
66.54 K	3.91
73.85 K	5.425
81.95 K	7.444
90.93 K	9.991
100.91 K	13.15
111.18 K	16.79
121.13 K	20.54
131.17 K	24.48
141.28 K	28.54
151.4 K	32.54
161.47 K	36.62
171.56 K	40.51
181.6 K	44.37
191.67 K	48.13
201.78 K	51.63
211.87 K	55.13
221.94 K	58.53
232 K	61.73
241.98 K	64.63
252.05 K	67.6
262.17 K	70.28
272.22 K	72.77
282.18 K	75.28
292.31 K	77.45
297.27 K	78.3
302.27 K	79.34
302.29 K	79.63
307.31 K	80.41
312.34 K	81.4
317.3 K	82.41
322.32 K	83.31
327.42 K	84.26
332.46 K	85.09
337.41 K	85.84
342.44 K	86.73
347.58 K	87.72
352.67 K	88.65
357.7 K	89.47
362.73 K	90.24
367.75 K	90.97
372.77 K	91.84
377.77 K	92.8
382.79 K	93.27
387.76 K	94.14
392.76 K	95.04
397.77 K	95.81
